Structures can show the parent of a compound that is named as a salt.

The first assay deals with T1, Androgen Receptor (Homo sapiens, UniProt P10275, T878A).
T1 construct: the AR gene was modified, using CRISPR/Cas9 editing, so the expressed AR protein included an 11 amino acid HiBiT tag; endogenous in cells; host or cells: clonal LnCaP-derived line, AR gene edited by CRISPR/Cas9
T1 sequence (P10275 whole entry T878A): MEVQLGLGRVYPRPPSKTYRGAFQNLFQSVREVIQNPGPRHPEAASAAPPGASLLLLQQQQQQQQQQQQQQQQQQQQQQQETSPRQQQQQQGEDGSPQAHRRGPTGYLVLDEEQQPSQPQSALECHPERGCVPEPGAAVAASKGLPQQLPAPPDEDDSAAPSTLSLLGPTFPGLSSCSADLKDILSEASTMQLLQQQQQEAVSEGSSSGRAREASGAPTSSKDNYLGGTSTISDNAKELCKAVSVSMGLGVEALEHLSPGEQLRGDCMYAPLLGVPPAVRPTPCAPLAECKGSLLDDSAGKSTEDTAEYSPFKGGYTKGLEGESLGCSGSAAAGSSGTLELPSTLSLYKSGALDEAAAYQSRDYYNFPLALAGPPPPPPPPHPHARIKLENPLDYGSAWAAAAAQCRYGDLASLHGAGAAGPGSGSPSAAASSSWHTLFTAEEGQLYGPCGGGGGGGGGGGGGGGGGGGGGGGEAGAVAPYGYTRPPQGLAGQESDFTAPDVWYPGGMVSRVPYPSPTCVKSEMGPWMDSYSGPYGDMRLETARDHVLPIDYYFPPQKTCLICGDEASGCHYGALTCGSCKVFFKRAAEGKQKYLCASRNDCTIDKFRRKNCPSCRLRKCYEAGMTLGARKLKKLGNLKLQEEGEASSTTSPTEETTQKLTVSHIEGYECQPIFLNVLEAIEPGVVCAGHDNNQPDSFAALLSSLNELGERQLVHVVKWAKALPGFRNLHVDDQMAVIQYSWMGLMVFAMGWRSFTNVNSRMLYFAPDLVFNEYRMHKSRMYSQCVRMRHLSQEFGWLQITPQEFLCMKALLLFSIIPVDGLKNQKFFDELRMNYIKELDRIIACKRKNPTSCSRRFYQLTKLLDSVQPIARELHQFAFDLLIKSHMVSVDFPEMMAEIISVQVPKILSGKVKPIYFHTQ
T1 sequence (Q96SW2 whole entry partner): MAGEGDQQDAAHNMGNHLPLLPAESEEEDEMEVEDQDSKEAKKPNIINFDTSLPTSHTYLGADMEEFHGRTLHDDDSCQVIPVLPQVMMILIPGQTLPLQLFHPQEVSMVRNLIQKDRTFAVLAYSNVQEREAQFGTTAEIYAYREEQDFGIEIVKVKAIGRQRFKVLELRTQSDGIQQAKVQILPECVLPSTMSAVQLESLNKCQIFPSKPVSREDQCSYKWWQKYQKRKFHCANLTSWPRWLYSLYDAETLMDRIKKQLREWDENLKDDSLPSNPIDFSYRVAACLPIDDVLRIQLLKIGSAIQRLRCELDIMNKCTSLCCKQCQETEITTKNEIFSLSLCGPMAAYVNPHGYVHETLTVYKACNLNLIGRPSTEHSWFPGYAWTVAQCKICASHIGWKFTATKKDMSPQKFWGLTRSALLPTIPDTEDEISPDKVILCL
T1 sequence (Q16531 whole entry partner): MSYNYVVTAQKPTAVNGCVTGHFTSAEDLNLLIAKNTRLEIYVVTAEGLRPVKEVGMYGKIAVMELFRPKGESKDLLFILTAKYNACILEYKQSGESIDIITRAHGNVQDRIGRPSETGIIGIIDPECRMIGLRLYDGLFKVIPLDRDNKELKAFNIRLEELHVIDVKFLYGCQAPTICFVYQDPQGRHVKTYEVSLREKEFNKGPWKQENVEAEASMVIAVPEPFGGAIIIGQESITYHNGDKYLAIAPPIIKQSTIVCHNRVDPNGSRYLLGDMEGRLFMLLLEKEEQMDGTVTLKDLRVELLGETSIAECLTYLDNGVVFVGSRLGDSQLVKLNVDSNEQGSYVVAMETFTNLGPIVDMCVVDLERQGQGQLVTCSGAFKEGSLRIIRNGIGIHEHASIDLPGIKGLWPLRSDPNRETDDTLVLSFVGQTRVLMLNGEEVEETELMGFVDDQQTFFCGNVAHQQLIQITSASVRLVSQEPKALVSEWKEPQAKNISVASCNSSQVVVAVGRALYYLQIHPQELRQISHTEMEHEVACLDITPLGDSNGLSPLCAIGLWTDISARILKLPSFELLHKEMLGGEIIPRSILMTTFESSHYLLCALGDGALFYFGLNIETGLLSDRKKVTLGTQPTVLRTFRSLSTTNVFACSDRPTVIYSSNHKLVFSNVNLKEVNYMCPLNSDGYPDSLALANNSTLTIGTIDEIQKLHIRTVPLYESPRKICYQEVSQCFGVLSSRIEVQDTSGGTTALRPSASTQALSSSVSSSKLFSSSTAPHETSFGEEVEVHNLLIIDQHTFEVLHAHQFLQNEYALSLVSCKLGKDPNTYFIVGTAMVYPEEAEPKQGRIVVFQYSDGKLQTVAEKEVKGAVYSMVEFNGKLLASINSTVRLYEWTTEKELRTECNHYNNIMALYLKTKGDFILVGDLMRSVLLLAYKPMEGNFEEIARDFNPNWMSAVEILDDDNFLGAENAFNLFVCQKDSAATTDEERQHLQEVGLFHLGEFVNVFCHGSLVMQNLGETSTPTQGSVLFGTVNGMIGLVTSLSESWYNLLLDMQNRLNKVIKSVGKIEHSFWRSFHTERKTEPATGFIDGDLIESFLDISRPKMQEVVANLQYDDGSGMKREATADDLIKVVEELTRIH
The assay is described as follows: Androgen Receptor Degradation Assay (Nano-Glo HiBiT). Type of assay: cell-based. Conditions: HiBiT-tagged AR in human LnCaP cells, 18 h. The essentials:
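LnCaP cells with CRISPR-knocked-in N-terminal HiBiT-tagged AR (10,000/well) treated 18 h at 37 °C with PROTACs over 11 threefold concentrations; lytic HiBiT luminescence normalised to DMSO (0%) and cell-free (100%) controls. Relative DC50 = 4-parameter fit inflection; absolute DC50 = 50% degradation interpolation; Dmax = maximum observed degradation.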
On the technique in general: HiBiT is a short tag that completes a luciferase, so light tracks the accessible tagged protein.
Turning to `CC1(C)[C@H](NC(=O)c2ncc(N3CCC(CN4CCC(n5ncc6c(N7CCC(=O)NC7=O)cccc65)CC4)CC3)cn2)C(C)(C)[C@H]1Oc1cnc(C#N)c(Cl)c1` [EAR268, N-((1r,3r)-3-((5-Chloro-6-cyanopyridin-3-yl)oxy)-2,2,4,4-tetramethylcyclobutyl)-5-(4-((4-(4-(2,4-dioxotetrahydropyrimidin-1(2H)-yl)-1H-indazol-1-yl)piperidin-1-yl)methyl)piperidin-1-yl)pyrimidine-2-carboxamide], the “mean relative pDC50” value amounted to 5.54.

Still in this assay, the particulars now being: LNCaP, 18 h, HiBiT-tagged AR in human LnCaP cells, read-out: mean asymptote max.
Regarding `N#Cc1ccc(O[C@H]2CC[C@H](NC(=O)c3ccc(N4CCC(CN5CCC(n6ncc7c(N8CCC(=O)NC8=O)cccc76)CC5)C4)nn3)CC2)cc1Cl` (some centres unmarked) [EAR152, N-((1r,4r)-4-(3-Chloro-4-cyanophenoxy)cyclohexyl)-6-(3-((4-(4-(2,4-dioxotetrahydropyrimidin-1(2H)-yl)-1H-indazol-1-yl)piperidin-1-yl)methyl)pyrrolidin-1-yl)pyridazine-3-carboxamide, formic acid salt], the Dmax is at least 50%.
The same measure, in the same setting: in the case of `C[C@@H]1CN(C(=O)Nc2ccc(N3CCC(CN4CCC(n5ncc6c(N7CCC(=O)NC7=O)cccc65)CC4)CC3)nc2)[C@@H](C)CN1c1ccc(C#N)c(Cl)c1` [EAR138, (2S,5R)-4-(3-Chloro-4-cyanophenyl)-N-(6-(4-((4-(4-(2,4-dioxotetrahydropyrimidin-1(2H)-yl)-1H-indazol-1-yl)piperidin-1-yl)methyl)piperidin-1-yl)pyridin-3-yl)-2,5-dimethylpiperazine-1-carboxamide, formic acid salt] it was at least 50%; in that of `N#Cc1ccc(O[C@H]2CC[C@H](NC(=O)c3ccc(N4CCC(CN5CCC(n6ccc7c(N8CCC(=O)NC8=O)c(F)ccc76)CC5)CC4)nn3)CC2)cc1Cl` [EAR170, N-((1r,4r)-4-(3-Chloro-4-cyanophenoxy)cyclohexyl)-6-(4-((4-(4-(2,4-dioxotetrahydropyrimidin-1(2H)-yl)-5-fluoro-1H-indol-1-yl)piperidin-1-yl)methyl)piperidin-1-yl)pyridazine-3-carboxamide, hydrochloride], at least 50%; in that of `N#Cc1ccc(O[C@H]2CC[C@H](NC(=O)c3ccc(N4CCC(CN5CCC(Cn6ccc7c(N8CCC(=O)NC8=O)cccc76)CC5)CC4)nn3)CC2)cc1Cl` [EAR26, N-((1r,4r)-4-(3-Chloro-4-cyanophenoxy)cyclohexyl)-6-(4-((4-((4-(2,4-dioxotetrahydropyrimidin-1(2H)-yl)-1H-indol-1-yl)methyl)piperidin-1-yl)methyl)piperidin-1-yl)pyridazine-3-carboxamide hydrochloride], at least 50%.
The same measure, in the same setting: in the case of `CN(c1ccc(C#N)c(Cl)c1)[C@H]1CC[C@H](NC(=O)c2ccc(N3CCC(CN4CCC(n5ccc6c(N7CCC(=O)NC7=O)cc(F)cc65)CC4)CC3)nn2)CC1` [EAR201, N-((1r,4r)-4-((3-Chloro-4-cyanophenyl)(methyl)amino)cyclohexyl)-6-(4-((4-(4-(2,4-dioxotetrahydropyrimidin-1(2H)-yl)-6-fluoro-1H-indol-1-yl)piperidin-1-yl)methyl)piperidin-1-yl)pyridazine-3-carboxamide hydrochloride] it was at least 50%; in that of `CC1(C)[C@H](NC(=O)c2ncc(N3CCC(CN4CCC(n5ccc6c(N7CCC(=O)NC7=O)ccnc65)CC4)CC3)cn2)C(C)(C)[C@H]1Oc1cnc(C#N)c(Cl)c1` [EAR269, N-((1r,3r)-3-((5-Chloro-6-cyanopyridin-3-yl)oxy)-2,2,4,4-tetramethylcyclobutyl)-5-(4-((4-(4-(2,4-dioxotetrahydropyrimidin-1(2H)-yl)-1H-pyrrolo[2,3-b]pyridin-1-yl)piperidin-1-yl)methyl)piperidin-1-yl)pyrimidine-2-carboxamide], at least 50%.
Still for that read-out and setting: in the case of `N#Cc1ccc(O[C@H]2CC[C@H](NC(=O)c3ccc(C4CCN(CC(=O)N5CCC(n6ncc7c(N8CCC(=O)NC8=O)cccc76)CC5)CC4)nn3)CC2)cc1Cl` [EAR167, N-((1r,4r)-4-(3-Chloro-4-cyanophenoxy)cyclohexyl)-6-(1-(2-(4-(4-(2,4-dioxotetrahydropyrimidin-1(2H)-yl)-1H-indazol-1-yl)piperidin-1-yl)-2-oxoethyl)piperidin-4-yl)pyridazine-3-carboxamide] it was at least 50%; in that of `N#Cc1ccc(O[C@H]2CC[C@H](NC(=O)c3cnc(N4CCC(CN5CCC(n6ncc7c(N8CCC(=O)NC8=O)cccc76)CC5)CC4)cn3)CC2)cc1Cl` [EAR39, N-((1r,4r)-4-(3-Chloro-4-cyanophenoxy)cyclohexyl)-5-(4-((4-(4-(2,4-dioxotetrahydropyrimidin-1(2H)-yl)-1H-indazol-1-yl)piperidin-1-yl)methyl)piperidin-1-yl)pyrazine-2-carboxamide hydrochloride], at least 50%; in that of `N#Cc1ccc(O[C@H]2CC[C@H](NC(=O)c3ccc(N4CCC(CN5CCC(n6ncc7c(N8CCC(=O)NC8=O)cc(F)cc76)CC5)CC4)nn3)CC2)cc1Cl` [EAR33, N-((1r,4r)-4-(3-Chloro-4-cyanophenoxy)cyclohexyl)-6-(4-((4-(4-(2,4-dioxotetrahydropyrimidin-1(2H)-yl)-6-fluoro-1H-indazol-1-yl)piperidin-1-yl)methyl)piperidin-1-yl)pyridazine-3-carboxamide], at least 50%.
In the case of `N#Cc1ccc(O[C@H]2CC[C@H](NC(=O)c3ccc(N4CCN(C[C@H]5CC[C@H](n6ccc7c(N8CCC(=O)NC8=O)cccc76)CC5)CC4)nn3)CC2)cc1Cl` [AR215, N-((1r,4r)-4-(3-Chloro-4-cyanophenoxy)cyclohexyl)-6-(4-(((1r,4r)-4-(4-(2,4-dioxotetrahydropyrimidin-1(2H)-yl)-1H-indol-1-yl)cyclohexyl)methyl)piperazin-1-yl)pyridazine-3-carboxamide hydrochloride], the Dmax is at least 50%.
As to `C[C@@H]1CN(c2ccc(C#N)c(Cl)c2)[C@@H](C)CN1C(=O)Nc1ccc(N2CCC(CCN3CCC(n4ccc5c(N6CCC(=O)NC6=O)cccc54)CC3)CC2)nc1` [EAR117, (2R,5S)-4-(3-Chloro-4-cyanopheny)-N-(6-(4-(2-(4-(4-(2,4-dioxotetrahydropyrimidin-1(2H)-yl)-1H-indol-1-yl)piperidin-1-yl)ethyl)piperidin-1-yl)pyridin-3-yl)-2,5-dimethylpiperazine-1-carboxamide], the Dmax is at least 50%.
Still for that read-out and setting: in the case of `CC1(C)[C@H](NC(=O)c2ncc(N3CCC(CN4CCC(n5ncc6c(N7CCC(=O)NC7=O)cccc65)CC4)CC3)cn2)C(C)(C)[C@H]1Oc1cnc(C#N)c(Cl)c1` [EAR268, N-((1r,3r)-3-((5-Chloro-6-cyanopyridin-3-yl)oxy)-2,2,4,4-tetramethylcyclobutyl)-5-(4-((4-(4-(2,4-dioxotetrahydropyrimidin-1(2H)-yl)-1H-indazol-1-yl)piperidin-1-yl)methyl)piperidin-1-yl)pyrimidine-2-carboxamide] it was at least 50%; in that of `N#Cc1ccc(O[C@H]2CC[C@H](NC(=O)c3ccc(N4CCC(CN5CCC6(CC5)CC(n5ccc7c(N8CCC(=O)NC8=O)cccc75)C6)CC4)nn3)CC2)cc1Cl` [EAR185, N-((1r,4r)-4-(3-Chloro-4-cyanophenoxy)cyclohexyl)-6-(4-((2-(4-(2,4-dioxotetrahydropyrimidin-1(2H)-yl)-1H-indol-1-yl)-7-azaspiro[3.5]nonan-7-yl)methyl)piperidin-1-yl)pyridazine-3-carboxamide hydrochloride], at least 50%.
Take `CC(C)n1ccc2c(N3CCC(=O)NC3=O)cc(C(=O)N3CCC4(CCCN(Cc5ccc(C(=O)N[C@H]6CC[C@H](Oc7ccc(C#N)c(Cl)c7)CC6)cc5)C4)CC3)cc21` [EAR81, N-((1r,4r)-4-(3-Chloro-4-cyanophenoxy)cyclohexyl)-4-((9-(4-(2,4-dioxotetrahydropyrimidin-1(2H)-yl)-1-isopropyl-1H-indole-6-carbonyl)-2,9-diazaspiro[5.5]undecan-2-yl)methyl)benzamide]: the Dmax was at least 50%.
For `N#Cc1ccc(O[C@H]2CC[C@H](NC(=O)c3ccc(N4CCN(CC(=O)N5CCC(n6ncc7c(N8CCC(=O)NC8=O)cccc76)CC5)CC4)nn3)CC2)cc1Cl` [EAR158, N-((1r,4r)-4-(3-Chloro-4-cyanophenoxy)cyclohexyl)-6-(4-(2-(4-(4-(2,4-dioxotetrahydropyrimidin-1(2H)-yl)-1H-indazol-1-yl)piperidin-1-yl)-2-oxoethyl)piperazin-1-yl)pyridazine-3-carboxamide], the Dmax was at least 50%.
Still for that read-out and setting: in the case of `N#Cc1ccc(O[C@H]2CC[C@H](NC(=O)c3ccc(N4CCC(CN5CCC(n6ncc7c(N8CCC(=O)NC8=O)cccc76)CC5)CC4)nn3)CC2)cc1C(F)(F)F` [EAR44, N-((1r,4r)-4-(4-Cyano-3-(trifluoromethyl)phenoxy)cyclohexyl)-6-(4-((4-(4-(2,4-dioxotetrahydropyrimidin-1(2H)-yl)-1H-indazol-1-yl)piperidin-1-yl)methyl)piperidin-1-yl)pyridazine-3-carboxamide] it was at least 50%.
On the same count and under the same terms, in the case of `N#Cc1ccc(O[C@H]2CC[C@H](NC(=O)c3cnc(N4CCC(CN5CCC(n6ccc7c(N8CCC(=O)NC8=O)nccc76)CC5)CC4)cn3)CC2)cc1C(F)(F)F` [EAR181, N-((1r,4r)-4-(4-Cyano-3-(trifluoromethyl)phenoxy)cyclohexyl)-5-(4-((4-(4-(2,4-dioxotetrahydropyrimidin-1(2H)-yl)-1H-pyrrolo[3,2-c]pyridin-1-yl)piperidin-1-yl)methyl)piperidin-1-yl)pyrazine-2-carboxamide] it was at least 50%; in that of `CC(C)n1ccc2c(N3CCC(=O)NC3=O)cc(C(=O)N3CCN(CCCOc4ccc(C(=O)N[C@H]5CC[C@H](Oc6ccc(C#N)c(Cl)c6)CC5)nc4)CC3)cc21` [EAR59, N-((1r,4r)-4-(3-Chloro-4-cyanophenoxy)cyclohexyl)-5-(3-(4-(4-(2,4-dioxotetrahydropyrimidin-1(2H)-yl)-1-isopropyl-1H-indole-6-carbonyl)piperazin-1-yl)propoxy)picolinamide], at least 50%; in that of `N#Cc1ccc(O[C@H]2CC[C@H](NC(=O)c3ccc(N4CCC(CN5CCC[C@@](F)(Cn6ccc7c(N8CCC(=O)NC8=O)cccc76)C5)CC4)nn3)CC2)cc1Cl` [EAR159, N-((1r,4r)-4-(3-Chloro-4-cyanophenoxy)cyclohexyl)-6-(4-(((S)-3-((4-(2,4-dioxotetrahydropyrimidin-1(2H)-yl)-1H-indol-1-yl)methyl)-3-fluoropiperidin-1-yl)methyl)piperidin-1-yl)pyridazine-3-carboxamide], at least 50%.
